In this experiment the target is T1, Sterol O-acyltransferase 1 (Rattus norvegicus, UniProt O70536).
T1 sequence (O70536 whole entry): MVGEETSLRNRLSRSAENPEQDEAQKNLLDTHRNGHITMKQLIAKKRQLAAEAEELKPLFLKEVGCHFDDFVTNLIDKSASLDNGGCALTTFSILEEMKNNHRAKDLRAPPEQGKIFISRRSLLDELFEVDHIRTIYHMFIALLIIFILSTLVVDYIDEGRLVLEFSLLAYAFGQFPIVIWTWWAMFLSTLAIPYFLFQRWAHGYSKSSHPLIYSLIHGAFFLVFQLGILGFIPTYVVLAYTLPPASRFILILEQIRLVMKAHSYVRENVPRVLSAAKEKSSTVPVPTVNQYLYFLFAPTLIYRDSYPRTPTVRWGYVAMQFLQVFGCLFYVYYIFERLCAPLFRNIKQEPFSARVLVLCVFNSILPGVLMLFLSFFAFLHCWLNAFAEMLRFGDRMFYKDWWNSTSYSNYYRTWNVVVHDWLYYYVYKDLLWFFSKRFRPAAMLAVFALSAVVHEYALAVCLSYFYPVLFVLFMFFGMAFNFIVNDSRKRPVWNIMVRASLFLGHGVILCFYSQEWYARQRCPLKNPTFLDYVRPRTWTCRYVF
The experiment in a line: ChEBML_28359. The source says: In vitro inhibition of rat liver microsomal Acyl coenzyme A:cholesterol acyltransferase

As a reminder, the IC50 is the concentration that inhibits the measured activity by half. A higher IC50 goes with lower potency. Turning to `CN(C(=O)c1ccc(C#N)cc1)C1N(C)C(c2ccc(C#N)cc2)=NC1(C(F)(F)F)C(F)(F)F` (stereo not drawn), the IC50 was determined as 1900 nM.

In the case of `CN(C(=O)c1ccc(C#N)cc1)[C@H]1N(C)C(c2ccc(C#N)cc2)=NC1(C(F)(F)F)C(F)(F)F`, 1000 nM corresponded to half-maximal inhibition (IC50).

The compound `CN(C(=O)c1ccc(C#N)cc1)[C@@H]1N(C)C(c2ccc(C#N)cc2)=NC1(C(F)(F)F)C(F)(F)F` registered an IC50 of 55000 nM.
